Experimental data reported in patent US20150216867A1, “COMPOUNDS FOR USE IN GASTRIC COMPLICATION” (NOVARTIS AG, priority 2012, published 2015).
Where a name gives a salt, the structure may show the parent alone.

Tests used:
[1] = tested on: cultured primary DRG cells; assay: Dorsal root ganglia stimulation with acid: low pH (6.1) induced CGRP release; assay type: cell-based; settings: read-out: IC50, block of increased CGRP release
Description: c) Dorsal Root Ganglia Stimulation with Acid—Blockade of the Effect with GPR4 Antagonist Low pH (6.1) induces a significant Calcitonin Gene-Related Peptide (CGPR) release in cultured primary DRG cells.

human GPR4 [2] = target: T1, human GPR4 (Homo sapiens, UniProt P46093); assay: Human GPR4 binding assay with additional human serum albumin (4% HSA); set-up: c-myc (N); expressed in transfected cells; settings: binding assay with additional 4% human serum albumin
Procedure: (§1) Cells were grown in T175 flasks to a density of about 1×10^6 cells/mL in growth medium. The cells were harvested by centrifugation (3000 rpm for 30 minutes at 4° C.) and the pellet resuspended in ice cold buffer A (20 mM HEPES pH 7.8, 10 mM EDTA, 100 mM NaCl, 1 tab/40 mL protease inhibitor complete). […] The homogenate was centrifuged at 18000 rpm for 50 min at 4° C. and the membrane protein pellet resuspended in cold buffer A using the Polytron (2×20 seconds). The protein concentration is determined using the Bio Rad Protein Assay and human IgG as standard. The volume of the membrane protein suspension is adjusted to a final concentration of about 2 mg protein/mL. The suspension is then once again homogenized (Polytron) on ice at 25000 rpm for 20 seconds before being aliquoted and stored at −80° C.
Radio Ligand Binding Assay: Serial dilutions of compounds (stock in 10 mM DMSO) are prepared by first diluting the compounds in DMSO followed by a 1:50 dilution into assay buffer (10 mM HEPES, pH 8.0, 100 mM NaCl, 5 mM MgCl2, 1 mM CaCl2, 0.5% fatty acid-free BSA, 0.05% Tween-20). […] The desired amount of membranes (20 μg/well) is diluted with assay buffer. […] 100 μL of the membrane-suspension is added and the plate stirred for 60 minutes. […] Finally the plate is counted for 2 min/well in a TopCount NXT instrument (Packard Instruments). The data are analyzed using the GraphPad Prism™ software. […]

human GPR4 [3] = target: T1, human GPR4; assay: Human GPR4 binding assay ([3H]4(example 39) radioligand, membranes of 300.19 cells); set-up: c-myc (N); expressed in transfected cells
Procedure: as §1
Radio Ligand Binding Assay: Serial dilutions of compounds (stock in 10 mM DMSO) are prepared by first diluting the compounds in DMSO followed by a 1:50 dilution into assay buffer (10 mM HEPES, pH 8.0, 100 mM NaCl, 5 mM MgCl2, 1 mM CaCl2, 0.5% fatty acid-free BSA, 0.05% Tween-20). […] The desired amount of membranes (20 μg/well) is diluted with assay buffer. […] 100 μL of the membrane-suspension is added and the plate stirred for 60 minutes. […] Finally the plate is counted for 2 min/well in a TopCount NXT instrument (Packard Instruments). The data are analyzed using the GraphPad Prism™ software.

human GPR4 [4] = target: T1, human GPR4; assay: Cell-based assay for human GPR4 activity: pH-induced cAMP formation (HTRF) in HeLa cells; set-up: expressed in transfected cells; settings: HeLa cells stably expressing human GPR4, pH-induced cAMP formation
Procedure: HeLa cells stably expressing human GPR4 were established by transfecting the cells with a construct containing the human GPR4 coding sequence. The cells were grown in Dulbecco's Modified Eagle Medium (DMEM)/HAM's tissue culture medium F12 (HAM's F12) supplemented with 10% fetal calf serum (FCS), 100 u/ml penicillin, 100 μg/ml streptomycin and 400 μg/ml G418 and 10 mM Hepes pH 8.0. pH-induced formation of cAMP was determined using the homogeneous time resolved fluorescence (HTRF) technology as provided by CisBio Inc. The cells were seeded in 384-well plates and cultured for 24 hours at 37° C., 5% CO2 before performing the assay. Medium was removed and 10 μl buffer A (Hepes buffered saline (HBS), 10 mM Hepes, pH 8, 2 mM 3-Isobutyl-1-methylxanthin (IBMX)) was added. For compound testing, buffer A with 2× concentrated compounds was used. Cells were incubated for 15 min at room temperature. 10 μl buffer B (HBS, 30 mM Hepes, specific pH) was added to reach the appropriate final pH for stimulation (see below) and incubation was continued for 15 min at room temperature.
HBS: 130 mM NaCl, 0.9 mM NaH2PO4, 5.4 mM KCl, 0.8 mM MgSO4, CaCl2 1.8 mM, 25 mM glucose, 10-30 mM Hepes. Adjustment of HBS buffers:
Compounds were diluted from fresh stock solutions at 10 mM in DMSO to 2 mM and then used for serial dilutions in DMSO.

[5] = tested on: neutrophil recruitment into the BAL fluid; assay: Neutrophil infiltration into mouse BAL fluid, cigarette smoke exposure model; assay type: in vivo; settings: WT mice, cigarette smoke 2 weeks, 90 mg/kg po
Procedure: e) Effect of GPR4 Antagonist on Neurophil Infiltration into Mouse BAL Fluid
The role of GPR4 on neutrophil recruitment was determined in the cigarette smoke exposure model. GPR4 WT (wild type) and KO (knockout) mice, and WT treated with the compounds of example No 41 and example No 40 (90 mg/kg po) were exposed to five cigarettes for 2 weeks. The mice were sacrificed 24 hours following last smoke exposure and bronchoalveolar lavage (BAL) was performed.
The following table summarizes the results obtained by the GPR4-mediated inhibition of neutrophil recruitment into the BAL fluid: […]

T1 sequence (P46093 whole entry): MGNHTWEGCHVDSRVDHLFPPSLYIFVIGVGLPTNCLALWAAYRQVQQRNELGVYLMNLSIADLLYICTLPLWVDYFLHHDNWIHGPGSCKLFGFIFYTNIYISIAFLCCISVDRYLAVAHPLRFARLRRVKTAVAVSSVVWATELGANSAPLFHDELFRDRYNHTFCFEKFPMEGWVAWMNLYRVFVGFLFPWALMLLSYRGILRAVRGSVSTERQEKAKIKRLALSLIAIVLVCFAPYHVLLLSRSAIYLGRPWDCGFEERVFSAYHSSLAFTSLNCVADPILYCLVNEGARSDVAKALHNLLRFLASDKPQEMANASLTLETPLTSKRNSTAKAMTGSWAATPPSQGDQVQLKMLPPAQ

Structure (SMILES)	IC50 [1] [nM]	recruitment of neutrophils [5]	further results
CCc1nn2c(C)cc(C)nc2c1Cc1ccc(/C=C/CN2CCN(C[C@@H](O)CO)CC2)cc1 [Example 17, (R)-3-(4-{(E)-3-[4-(2-Ethyl-5,7-dimethyl-pyrazolo[1,5-a]pyrimidin-3-ylmethyl)-phenyl]-allyl}-piperazin-1-yl)-propane-1,2-diol dihydrochloride]	120	–	–
CCc1nn2c(C)cc(C)nc2c1Cc1ccc(/C=C/C(=O)N2CCNCC2)cc1 [Example 18, (E)-3-[4-(2-Ethyl-5,7-dimethyl-pyrazolo[1,5-a]pyrimidin-3-ylmethyl)-phenyl]-1-piperazin-1-yl-propenone hydrochloride]	–	–	IC50 (human GPR4 [2]): 67 nM; IC50 (human GPR4 [3]): 81 nM; IC50 (human GPR4 [4]): 43 nM
CCc1nn2c(C)cc(C)nc2c1Cc1ccc(-c2nnc(C3CCNCC3)o2)cc1 [Example 35, 2-Ethyl-5,7-dimethyl-3-[4-(5-piperidin-4-yl-[1,3,4]oxadiazol-2-yl)-benzyl]-pyrazolo[1,5-a]pyrimidine]	530	–	–
CCc1nc2c(C)cc(C)nc2n1Cc1ccc(/C=C/CN2CCN(C(C)C)CC2)cc1 [Example 40, 2-Ethyl-3-{4-[(E)-3-(4-isopropyl-piperazin-1-yl)-propenyl]-benzyl}-5,7-dimethyl-3H-imidazo[4,5-b]pyridine]	–	significantly reduced	–
CCc1nc2c(C)cc(C)nc2n1Cc1ccc(/C=C/CN2CCC(N3CCCCC3)CC2)cc1 [Example 41, 1′-{(E)-3-[4-(2-Ethyl-5,7-dimethyl-imidazo[4,5-b]pyridin-3-ylmethyl)-phenyl]-allyl}-[1,4′]bipiperidinyl dihydrochloride]	–	significantly reduced	–
